Results: PubChem BioAssay AID489006 (Sanford-Burnham Center for Chemical Genomics, 2010)
Calls of active or inactive are those of the source. The rule behind the calls is not given here.

The compounds below were run on Jurkat NF-kB reporter, luminescence (assay: NF-kB reporter inhibition in Jurkat cells, dose response, selectivity assay for B-cell receptor NF-kB inhibitor project, cell-based, luminescence (AID 489006)).

Structure (SMILES)	IC50
CCOc1ccc(-c2nnc(SCC(=O)Nc3cc(C)on3)o2)cc1	1.52 µM
Cc1cccc(C(=O)Nc2ccc(CC(=O)O)cc2)c1	7.41 µM
Cc1ccc(C)c(OCc2ccc(C(=O)NN)o2)c1	> 80 µM (inactive)
C=C1C(=O)[C@@]23C[C@H]4[C@@H]5[C@@]6(C)CCC[C@@]57[C@@H]2[C@@H](O)[C@@H]1C[C@H]3[C@H]7N4C6	2.85 µM
C#CCN(Cc1ccccc1)S(=O)(=O)C=C	9.39 µM
CN(C)CCCN=Cc1c(-c2ccccc2)[nH]n(-c2nc3ccccc3s2)c1=O	0.88 µM
CCOC(=O)c1cc2c(=O)n3ccccc3nc2n(CC(C)C)c1=NC(=O)c1c(-c2c(F)cccc2Cl)noc1C	> 80 µM (inactive)
CC1Cc2ccccc2N1S(=O)(=O)c1cnc(Cl)c(Cl)c1 (centres undefined)	31.6 µM (inactive)
CN(CC1CCCO1)S(=O)(=O)c1ccc(C(=O)Nc2nc3cc4c(cc3s2)OCO4)cc1 (centres undefined)	> 80 µM (inactive)
Cc1cc(C)c(CN2CCN(C(=O)Cn3cnc4c(NCc5ccccc5)ncnc43)CC2)c(C)c1	69.9 µM (inactive)
COc1ccc(C(=O)Nc2nnc(SCC(=O)Nc3ccc(NC(C)=O)cc3)s2)c(OC)c1	> 80 µM (inactive)
COc1ccccc1/C=C1/SC(=S)N(CCC(=O)Nc2cccnc2)C1=O	> 80 µM (inactive)
CCCN1C(=O)/C(=C/c2c(N3CCNC(=O)C3CC(=O)OCC)nc3c(C)cccn3c2=O)SC1=S (centres undefined)	24.4 µM (inactive)
O=c1cccc2c1c1cc[nH]c3ccc(=O)n2c31	2.3 µM
Cn1c(=O)cc(OCCCC(=O)NCc2ccccn2)c2ccccc21	> 80 µM (inactive)
COc1cccc(-c2noc(CCC(=O)NCCc3ccccc3)n2)c1	29.8 µM (inactive)
CCOC(=O)Cc1csc(NC(=S)NC(=O)c2ccc(Cl)cc2)n1	3.85 µM
Cc1cc(NC(=O)CCCN2C(=O)/C(=C/c3ccccc3Cl)SC2=S)no1	20.4 µM (inactive)
O=C(CCCN1C(=O)S/C(=C\c2ccccc2)C1=O)NNC(=O)c1ccccc1O	1.06 µM
O=C(N/N=C/c1ccc(Cl)cc1Cl)c1ccc(-n2cnnn2)cc1	> 80 µM (inactive)
COc1cc(OC)cc(-c2cc3nc(C)c(CCC(=O)Nc4nc(C)cs4)c(C)n3n2)c1	5.28 µM
CCN(CC)CCOC(=O)c1ccc(NC(=O)COc2cc(=O)n(CC)c3ccccc23)cc1	43.8 µM (inactive)
Cc1ccc(C(=O)OCC(=O)N(CC(C)C)c2c(N)n(Cc3ccccc3)c(=O)[nH]c2=O)o1	> 80 µM (inactive)
CC(C)N1C(=O)S/C(=C/c2ccc3c(c2)n(C)c(=O)n3C)C1=O	> 80 µM (inactive)
c1ccc(CCNc2ncnc3ccccc23)cc1	64.2 µM (inactive)

Structure (SMILES)	IC50
O=C(O)COc1ccc(-c2nccc(-c3ccccn3)n2)cc1	0.22 µM
Cc1ccc(C(=O)NNC(=O)CCCN2C(=O)/C(=C/c3ccccc3Cl)SC2=S)cc1	4.81 µM
COc1ccc(C(=O)Nc2cccc(NC(=O)c3ccc(OC)c(OC)c3)n2)cc1OC	9.7 µM
CCCc1nc2c(C)cc(-c3nc4ccccc4n3C)cc2n1Cc1ccc(-c2ccccc2C(=O)O)cc1	> 80 µM (inactive)
COc1ccc(C(=O)Nc2nnc(Cc3cccs3)s2)cc1OC	> 80 µM (inactive)
Cc1ccc(-c2cc(C(=O)NCCCN3CCOCC3)no2)cc1	15.2 µM
CC(C)Cn1c([N+](=O)[O-])nc2c1c(=O)[nH]c(=O)n2C	7.23 µM
CN(C)S(=O)(=O)c1ccc(NC(=O)N2CCN(c3ccccc3)CC2)cc1	> 80 µM (inactive)
CC1=CC(C)(C)Nc2ccc(OC(=O)c3cccnc3)cc21	1.17 µM
N=c1c(C(=O)NC2CCCC2)cc2c(=O)n3ccccc3nc2n1CCN1CCOCC1	> 80 µM (inactive)
CCOC(=O)C1CCN(c2ncnc3c2cnn3-c2ccc(Cl)cc2)CC1	0.39 µM
Cc1ccc(CSc2nnc(SCC(=O)N/N=C/C=C/c3ccccc3[N+](=O)[O-])s2)cc1	67 µM (inactive)
O=C1CCC2S/C(=C/Nc3ccc(C(F)(F)F)cc3)C(=O)N12 (centres undefined)	0.18 µM
CC(C)CCNC(=O)CCCOc1cc(=O)n(C)c2ccccc12	70.4 µM (inactive)
COc1ccc(-c2ccc(F)cc2)cc1[C@H]1[C@H]2C=CC[C@@H](C)[C@@H]2C(=O)N1Cc1ccccc1	> 80 µM (inactive)
Cc1ccccc1Nc1nc(Cl)c(C=O)s1	> 80 µM (inactive)
COC(=O)c1cc(NC(=O)Nc2cc(OC)ccc2OC)cc(C(=O)OC)c1	63.8 µM (inactive)
CCOc1ccc(S(=O)(=O)NCc2ccncc2)cc1NC(=O)c1ccccc1	> 80 µM (inactive)
Cc1cc(C)cc(NC(=O)Nc2ccc(NC(=O)c3ccccc3O)cc2)c1	> 80 µM (inactive)
Cc1nn(C(C)(C)C)c(C)c1/C=N/OC(=O)Nc1ccc(Cl)c(Cl)c1	0.208 µM
COc1ccc(-c2noc(N3CCC(C(=O)Nc4ccc(F)cc4F)CC3)n2)cc1	> 80 µM (inactive)
CCn1c(=O)cc(SCC(=O)N2CCN(C)CC2)c2ccccc21	> 80 µM (inactive)
CCC(C)N1C(=O)/C(=C/c2c(NCCCOC(C)C)nc3c(C)cccn3c2=O)SC1=S (centres undefined)	> 80 µM (inactive)
Cc1cc(C)nc(Sc2ccc([N+](=O)[O-])cc2[N+](=O)[O-])n1	11.7 µM
Cc1ccc(C(=O)CSc2nnc(COc3cccc(C)c3)o2)cc1	> 80 µM (inactive)

Structure (SMILES)	IC50
CCOc1ccc(-c2nnc(SCC(=O)NC3CC3)o2)cc1	54.2 µM (inactive)
CCN(CC)c1ccc2cc(NC(=O)CCC(=O)O)c(=O)oc2c1	0.46 µM
N=c1ccn2c(n1)OC1C(O)C(CO)OC12 (centres undefined)	2.21 µM
N=c1ccn2c(n1)O[C@H]1[C@H](O)[C@@H](CO)O[C@H]12	0.64 µM
COc1ccc(C(C(=O)NC2CCCCC2)N(C(=O)CCl)c2ccc(OC)cc2)cc1 (centres undefined)	0.65 µM
Cc1ccc(S(=O)(=O)CC2CSc3nc4ccccc4n32)cc1 (centres undefined)	> 80 µM (inactive)
COc1cc(C(=O)Nc2cc(C)c(OCC(=O)N3CCOCC3)c(C)c2)cc(OC)c1OC	> 80 µM (inactive)
COc1ccccc1/C=C1\SC(=S)N(CCC(=O)Nc2cccc(O)c2)C1=O	> 80 µM (inactive)
CC1CCN(CCCNC(=O)COc2cc(=O)n(C)c3ccccc23)CC1	> 80 µM (inactive)
CCOc1ccc(-c2nc(CSCC(=O)NCc3ccco3)c(C)o2)cc1	64 µM (inactive)
CC(C)[C@H](N)c1nnc(SCC(=O)c2ccc(Cl)cc2)o1	> 80 µM (inactive)
COc1ccc(/C=C/c2ccccc2)cc1[C@H]1[C@H]2C=CC[C@@H](C)[C@@H]2C(=O)N1Cc1ccccc1	> 80 µM (inactive)
COc1ccc(-c2nc(CSCC(=O)NCc3ccco3)c(C)o2)cc1	66.8 µM (inactive)
COc1ccc(-c2ccoc2)cc1[C@H]1[C@H]2C=CC[C@@H](C)[C@@H]2C(=O)N1Cc1ccccc1	50.4 µM (inactive)
Cc1c(NC(=O)/C=C/c2cn(-c3ccccc3)nc2-c2ccccc2)c(=O)n(-c2ccccc2)n1C	> 80 µM (inactive)
ClCc1nnc(-c2ccccc2)o1	10.5 µM
C(=N\Nc1nc(Nc2ccccc2)nc(N2CCOCC2)n1)/c1c[nH]c2ccccc12	37.7 µM (inactive)
Cc1ccc(/C=C2\SC(=S)N(CCCC(=O)NC3CCCC3)C2=O)cc1	0.73 µM
O=C1CCCc2c1[nH]c1ccc(CN3CCCCC3)cc21	> 80 µM (inactive)
Cc1ccc(C(=O)N2CCCC(c3ccc(Cl)cc3)=N2)cc1	> 80 µM (inactive)
Cc1csc(NC(=O)CCc2c(C)nc3cc(-c4ccc(Cl)cc4)nn3c2C)n1	0.36 µM
COC(=O)[C@@H]1Cc2c([nH]c3ccccc23)C(C)(C)N1C(=O)CCl	1.73 µM
Cc1cc(=O)[nH]c2c(C)cc(S(=O)(=O)N3CCCCC3)cc12	> 80 µM (inactive)
CCc1sc(C(=O)Nc2cccc(-n3cnnn3)c2)cc1C	> 80 µM (inactive)
CCCCOc1ccc(NC(=O)C(=O)NCCCn2ccnc2)cc1	> 80 µM (inactive)

Structure (SMILES)	IC50
CCOCCCNc1nc2c(C)cccn2c(=O)c1/C=C1\SC(=S)N(C(C)CC)C1=O (centres undefined)	> 80 µM (inactive)
CC1(c2nnc(-c3cccc(Cl)c3)o2)CC(c2cccc(Cl)c2)=NO1 (centres undefined)	> 80 µM (inactive)
O=C(NCCCN1CCOCC1)c1cc(-c2ccc(Br)cc2)on1	59.5 µM (inactive)
CCN(CC(=O)Nc1c(F)cccc1F)C(=O)c1cc(S(=O)(=O)N(CC)CC)ccc1N1CCCCC1	> 80 µM (inactive)
COc1ccc(/C=N\NC(=O)c2sccc2C)cc1Cn1nc(C)cc1C	> 80 µM (inactive)
O=C(O)CCSc1nc2ccccc2s1	6.75 µM
CC1Cc2ccccc2N1S(=O)(=O)c1cnc(Cl)c(Br)c1 (centres undefined)	27.2 µM (inactive)
Cc1cc(-c2cc(C(=O)NCc3ccccc3)on2)nc(S(C)(=O)=O)n1	3.91 µM
CCn1c(=O)cc(SCC(=O)N2CCCCC2)c2ccccc21	> 80 µM (inactive)
COc1ccc(NC(=O)CN(C)C(=O)C2(c3ccccc3)CCCC2)cc1	> 80 µM (inactive)
COc1ccc(OCc2cccc(C(=O)Nn3cc([N+](=O)[O-])cn3)c2)cc1	1.85 µM
COc1ccc(-c2nsc(SCC(=O)Nc3cc(C)on3)n2)cc1	> 80 µM (inactive)
O=C(CCCN1C(=O)/C(=C/c2ccccc2Cl)SC1=S)NNC(=O)c1ccccc1	5.2 µM
CC1CC(C)CN(S(=O)(=O)c2ccc(C(=O)NCCCn3ccnc3)cc2)C1 (centres undefined)	54.6 µM (inactive)
COc1ccc(NC(=O)c2cc3c(Cl)nc4ccccc4c3s2)cc1OC	61.9 µM (inactive)
Cc1cc(OC(=O)c2ccccc2Cl)cc(=O)n1C	> 80 µM (inactive)
Cc1nc([N+](=O)[O-])c(Sc2nc3ccc([N+](=O)[O-])cc3[nH]2)n1Cc1ccccc1	7.42 µM
CCCOc1ccc(NC(=O)C(=O)NCCCn2ccnc2)cc1	> 80 µM (inactive)
CCOC(=O)/C=C(\C)Sc1cc(=O)oc2ccccc12	4 µM
COc1cc(-c2[nH]nc3c2C(c2ccco2)C(C#N)=C(N)O3)cc(OC)c1OC (centres undefined)	61 µM (inactive)
CCc1ccc(/C=C2/SC(=S)N(CCC(=O)Nc3cccc(C(=O)O)c3)C2=O)cc1	> 80 µM (inactive)
Cc1ccc(-c2nn3c(C)nnc3c3ccccc23)cc1S(=O)(=O)NC(C)(C)CO	23.9 µM (inactive)
Cn1c(=O)c2c(SCC(=O)Nc3ccccc3F)nc(-c3ccccc3F)nc2n(C)c1=O	> 80 µM (inactive)
Cc1cc(OCC(=O)N2CCC(C(N)=O)CC2)c2c3c(c(=O)oc2c1)CCCC3	> 80 µM (inactive)
